Data published in the NIST ThermoML archive (doi:10.1016/j.jct.2008.04.010).
Several values for one entry are separate records, joined by “and”; a condition that tells them apart may be missing. Identical values can stand only once.

Legend:
[1] = molar enthalpy of vaporization or sublimation; settings: 298.15 K; Liquid; Calvet microcalorimetry
[2] = for vapor or sublimation pressure: Calculated from knudsen effusion weight loss; for Normal melting temperature: DTA
[3] = Molar enthalpy of transition or fusion; settings: Crystal; DSC

c1ccc(-c2cccc3ccccc23)cc1 [1-phenylnaphthalene]
Settings | molar enthalpy [kcal/mol]
[1] | 19.4

c1ccc(-c2cccc(-c3ccc4ccccc4c3)c2)cc1 [2-(biphen-3-yl)naphthalene]
[2], Liquid
Settings | vapor or sublimation pressure
381.08 K | 8.1e-05 kPa and 8.3e-05 kPa
385.17 K | 0.000117 kPa
389.15 K | 0.000174 kPa
389.17 K | 0.000177 kPa
393.18 K | 0.000216 kPa and 0.000218 kPa and 0.000223 kPa
397.15 K | 0.000323 kPa and 0.000303 kPa
397.17 K | 0.000315 kPa
401.14 K | 0.00041 kPa and 0.000429 kPa and 0.000427 kPa
405.18 K | 0.000546 kPa and 0.000585 kPa and 0.000588 kPa
409.08 K | 0.000767 kPa and 0.000773 kPa and 0.00079 kPa
413.17 K | 0.001087 kPa and 0.001156 kPa

Settings | Normal melting temperature [°C]
[2], Crystal | 73.2

Settings | Molar enthalpy of transition or fusion [kcal/mol]
[3] | 4.42

c1ccc(-c2ccc(-c3ccc4ccccc4c3)cc2)cc1 [2-(biphen-4-yl)naphthalene]
[2], Crystal
Settings | vapor or sublimation pressure
405.17 K | 6.2e-05 kPa and 6.3e-05 kPa
409.14 K | 9.1e-05 kPa and 8.8e-05 kPa and 8.9e-05 kPa
411.18 K | 0.000111 kPa and 0.000112 kPa
413.18 K | 0.000131 kPa and 0.000135 kPa and 0.000134 kPa
415.14 K | 0.000164 kPa and 0.00016 kPa and 0.000161 kPa
417.19 K | 0.000197 kPa
419.09 K | 0.000237 kPa and 0.000235 kPa and 0.00023 kPa
421.14 K | 0.000283 kPa and 0.00028 kPa
423.09 K | 0.000339 kPa and 0.000342 kPa and 0.000336 kPa
425.19 K | 0.000418 kPa and 0.000424 kPa and 0.000416 kPa
429.21 K | 0.000609 kPa and 0.000597 kPa
433.15 K | 0.000855 kPa and 0.000839 kPa
437.19 K | 0.001171 kPa and 0.001222 kPa and 0.001194 kPa

Settings | Normal melting temperature [°C]
[2], Crystal | 216.4

Settings | Molar enthalpy of transition or fusion [kcal/mol]
[3] | 6

c1ccc(-c2ccc3ccccc3c2)cc1 [2-phenylnaphthalene]
[2], Crystal
Settings | vapor or sublimation pressure
333.11 K | 0.000132 kPa and 0.000137 kPa
335.63 K | 0.000185 kPa and 0.000183 kPa and 0.00018 kPa
338.2 K | 0.000244 kPa and 0.000239 kPa
340.61 K | 0.00032 kPa and 0.000316 kPa and 0.000318 kPa
343.13 K | 0.00042 kPa and 0.000421 kPa and 0.000419 kPa
345.69 K | 0.000558 kPa and 0.000553 kPa and 0.000544 kPa
348.12 K | 0.000729 kPa and 0.000707 kPa and 0.000716 kPa
350.62 K | 0.000939 kPa and 0.000941 kPa and 0.000909 kPa
353.19 K | 0.001212 kPa and 0.001224 kPa and 0.001185 kPa

Settings | Normal melting temperature [°C]
[2], Crystal | 100.4

Settings | Molar enthalpy of transition or fusion [kcal/mol]
[3] | 4.28
